From ChEMBL document CHEMBL4346678, “Synthesis and anti-cancer evaluation of folic acid-peptide- paclitaxel conjugates for addressing drug resistance” (Eur J Med Chem, 2019)
The source made the active and inactive calls. The rule behind the calls is not given here. Starred links: 1 amine or outer side, 2 acyl side, 3 side chain; linkers in the order of their positions; H or OH if unused. Residues, ends and D or L forms follow the SMILES beside them. *: point of attachment. X1 = CC(=O)O[C@H]1C(=O)[C@@]2(C)[C@H]([C@H](OC(=O)c3ccccc3)[C@]3(O)C[C@H](OC(=O)[C@H](OC(=O)CCCCCN4C(=O)CC(*)C4=O)[C@@H](NC(=O)c4ccccc4)c4ccccc4)C(C)=C1C3(C)C)[C@]1(OC(C)=O)CO[C@@H]1C[C@@H]2O; Pteroyl = Nc1nc2ncc(CNc3ccc(C(=O)*)cc3)nc2c(=O)[nH]1; γGlu = O=C(O)[C@H](CCC(=O)[*:2])N[*:1]

Experiments:
MCF7/PTX [1] = experiment: Induction of membrane disruption in human MCF7/PTX cells incubated for 12 hrs by LDH release assay; assay type: functional, cell-based
MCF7/PTX [2] = experiment: Induction of apoptosis in human MCF7/PTX cells assessed as early apoptotic cells at 4 uM incubated for 12 hrs by Annexin V-FITC/propidium iodide staining based flow cytometric analysis (reference value: 1.1%); assay type: functional
MCF7/PTX [3] = experiment: Induction of apoptosis in human MCF7/PTX cells assessed as live cells at 4 uM incubated for 12 hrs by Annexin V-FITC/propidium iodide staining based flow cytometric analysis (reference value: 95.9%); assay type: functional
MCF7/PTX [4] = experiment: Induction of apoptosis in human MCF7/PTX cells assessed as necrotic cells at 2 uM incubated for 12 hrs by Annexin V-FITC/propidium iodide staining based flow cytometric analysis (reference value: 2.1%); assay type: functional
MCF7/PTX [5] = experiment: Induction of apoptosis in human MCF7/PTX cells assessed as late apoptotic cells at 2 uM incubated for 12 hrs by Annexin V-FITC/propidium iodide staining based flow cytometric analysis (reference value: 0.9%); assay type: functional
MCF7/PTX [6] = experiment: Induction of apoptosis in human MCF7/PTX cells assessed as early apoptotic cells at 2 uM incubated for 12 hrs by Annexin V-FITC/propidium iodide staining based flow cytometric analysis (reference value: 1.1%); assay type: functional
MCF7/PTX [7] = experiment: Induction of apoptosis in human MCF7/PTX cells assessed as live cells at 2 uM incubated for 12 hrs by Annexin V-FITC/propidium iodide staining based flow cytometric analysis (reference value: 95.9%); assay type: functional
MCF7/PTX [8] = experiment: Induction of apoptosis in human MCF7/PTX cells assessed as necrotic cells at 1 uM incubated for 12 hrs by Annexin V-FITC/propidium iodide staining based flow cytometric analysis (reference value: 2.1%); assay type: functional
MCF7/PTX [9] = experiment: Induction of apoptosis in human MCF7/PTX cells assessed as late apoptotic cells at 1 uM incubated for 12 hrs by Annexin V-FITC/propidium iodide staining based flow cytometric analysis (reference value: 0.9%); assay type: functional
MCF7/PTX [10] = experiment: Induction of apoptosis in human MCF7/PTX cells assessed as early apoptotic cells at 1 uM incubated for 12 hrs by Annexin V-FITC/propidium iodide staining based flow cytometric analysis (reference value: 1.1%); assay type: functional
MCF7/PTX [11] = experiment: Induction of apoptosis in human MCF7/PTX cells assessed as live cells at 1 uM incubated for 12 hrs by Annexin V-FITC/propidium iodide staining based flow cytometric analysis (reference value: 95.9%); assay type: functional
MCF7/PTX [12] = experiment: Induction of apoptosis in human MCF7/PTX cells assessed as late apoptotic cells at 3 uM incubated for 12 hrs by Annexin V-FITC/propidium iodide staining based flow cytometric analysis (reference value: 0.9%); assay type: functional
MCF7 = experiment: Cytotoxicity against human MCF7 cells incubated for 48 hrs by MTT assay; assay type: functional, cell-based; conditions: MCF7, 48 h
MCF7/PTX [13] = experiment: Cytotoxicity against human MCF7/PTX cells incubated for 48 hrs by MTT assay; assay type: functional, cell-based
K562 = experiment: Cytotoxicity against human K562 cells incubated for 48 hrs by MTT assay; assay type: functional, cell-based; conditions: K562, 48 h
A2780 = experiment: Cytotoxicity against human A2780 cells incubated for 48 hrs by MTT assay; assay type: functional, cell-based; conditions: A2780, 48 h
SK-OV-3 = experiment: Cytotoxicity against human SKOV3 cells incubated for 48 hrs by MTT assay; assay type: functional, cell-based; conditions: SK-OV-3, 48 h
MCF7/PTX [14] = experiment: Induction of apoptosis in human MCF7/PTX cells assessed as necrotic cells at 0.5 uM incubated for 12 hrs by Annexin V-FITC/propidium iodide staining based flow cytometric analysis (reference value: 2.1%); assay type: functional
HUVEC = experiment: Cytotoxicity against HUVEC incubated for 48 hrs by MTT assay; assay type: cell-based; conditions: Homo sapiens
MCF7/PTX [15] = experiment: Induction of apoptosis in human MCF7/PTX cells assessed as late apoptotic cells at 0.5 uM incubated for 12 hrs by Annexin V-FITC/propidium iodide staining based flow cytometric analysis (reference value: 0.9%); assay type: functional
MCF7/PTX [16] = experiment: Induction of apoptosis in human MCF7/PTX cells assessed as early apoptotic cells at 0.5 uM incubated for 12 hrs by Annexin V-FITC/propidium iodide staining based flow cytometric analysis (reference value: 1.1%); assay type: functional
MCF7/PTX [17] = experiment: Induction of apoptosis in human MCF7/PTX cells assessed as live cells at 0.5 uM incubated for 12 hrs by Annexin V-FITC/propidium iodide staining based flow cytometric analysis (reference value: 95.9%); assay type: functional
MCF7/PTX [18] = experiment: Induction of apoptosis in human MCF7/PTX cells assessed as necrotic cells at 3 uM incubated for 12 hrs by Annexin V-FITC/propidium iodide staining based flow cytometric analysis (reference value: 2.1%); assay type: functional
MCF7/PTX [19] = experiment: Induction of apoptosis in human MCF7/PTX cells assessed as live cells at 3 uM incubated for 12 hrs by Annexin V-FITC/propidium iodide staining based flow cytometric analysis (reference value: 95.9%); assay type: functional
MCF7/PTX [20] = experiment: Induction of apoptosis in human MCF7/PTX cells assessed as early apoptotic cells at 3 uM incubated for 12 hrs by Annexin V-FITC/propidium iodide staining based flow cytometric analysis (reference value: 1.1%); assay type: functional
Erythrocyte = experiment: Hemolytic activity in Wistar rat erythrocytes incubated for 1 hr; assay type: ADME, cell-based
MCF7/PTX [21] = experiment: Induction of membrane disruption in human MCF7/PTX cells at 3 uM incubated for 12 hrs by AO/EB double staining based fluorescence microscopic method; assay type: functional, cell-based
MCF7/PTX [22] = experiment: Induction of apoptosis in human MCF7/PTX cells assessed as late apoptotic cells at 4 uM incubated for 12 hrs by Annexin V-FITC/propidium iodide staining based flow cytometric analysis (reference value: 0.9%); assay type: functional
MCF7/PTX [23] = experiment: Induction of apoptosis in human MCF7/PTX cells assessed as necrotic cells at 4 uM incubated for 12 hrs by Annexin V-FITC/propidium iodide staining based flow cytometric analysis (reference value: 2.1%); assay type: functional
MCF7/PTX [24] = experiment: Induction of apoptosis in human MCF7/PTX cells assessed as live cells at 6 uM incubated for 12 hrs by Annexin V-FITC/propidium iodide staining based flow cytometric analysis (reference value: 95.9%); assay type: functional
MCF7/PTX [25] = experiment: Induction of apoptosis in human MCF7/PTX cells assessed as early apoptotic cells at 6 uM incubated for 12 hrs by Annexin V-FITC/propidium iodide staining based flow cytometric analysis (reference value: 1.1%); assay type: functional
MCF7/PTX [26] = experiment: Induction of apoptosis in human MCF7/PTX cells assessed as late apoptotic cells at 6 uM incubated for 12 hrs by Annexin V-FITC/propidium iodide staining based flow cytometric analysis (reference value: 0.9%); assay type: functional
MCF7/PTX [27] = experiment: Induction of apoptosis in human MCF7/PTX cells assessed as necrotic cells at 6 uM incubated for 12 hrs by Annexin V-FITC/propidium iodide staining based flow cytometric analysis (reference value: 2.1%); assay type: functional
MCF7/PTX [28] = experiment: Induction of mitochondrial membrane potential loss in human MCF7/PTX cells at 3 uM incubated for 12 hrs by JC1 staining-based confocal microscopic method; assay type: functional, cell-based
MCF7/PTX [29] = experiment: Induction of apoptosis in human MCF7/PTX cells assessed as increase in cleaved caspase 3 level in cytoplasm at 3 uM incubated for 2 hrs by Western blot analysis; assay type: functional, cell-based
MCF7/PTX [30] = experiment: Induction of apoptosis in human MCF7/PTX cells assessed increase in cytochrome-c expression in cytoplasm at 3 uM incubated for 2 hrs by Western blot analysis; assay type: functional, cell-based
Tubulin (Sus scrofa) = Tubulin (Sus scrofa) (UniProt P02554+P02550); experiment: Induction of porcine brain tubulin polymerization at 3 uM by fluorescence analysis
Tubulin (Sus scrofa), sequence (P02550 whole entry, looked up): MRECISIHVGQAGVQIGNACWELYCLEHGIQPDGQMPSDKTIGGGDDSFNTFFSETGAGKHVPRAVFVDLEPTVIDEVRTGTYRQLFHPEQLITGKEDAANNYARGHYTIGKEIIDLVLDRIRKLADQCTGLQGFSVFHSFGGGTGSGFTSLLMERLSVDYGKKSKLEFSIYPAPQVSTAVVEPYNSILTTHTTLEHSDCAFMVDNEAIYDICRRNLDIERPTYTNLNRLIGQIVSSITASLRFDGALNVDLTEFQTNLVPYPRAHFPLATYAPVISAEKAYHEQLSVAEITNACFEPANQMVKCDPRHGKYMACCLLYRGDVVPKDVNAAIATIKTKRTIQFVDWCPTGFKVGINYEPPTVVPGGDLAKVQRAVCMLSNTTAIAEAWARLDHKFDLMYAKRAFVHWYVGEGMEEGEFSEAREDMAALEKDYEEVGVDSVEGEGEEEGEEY
Tubulin (Sus scrofa), sequence (P02554 whole entry, looked up): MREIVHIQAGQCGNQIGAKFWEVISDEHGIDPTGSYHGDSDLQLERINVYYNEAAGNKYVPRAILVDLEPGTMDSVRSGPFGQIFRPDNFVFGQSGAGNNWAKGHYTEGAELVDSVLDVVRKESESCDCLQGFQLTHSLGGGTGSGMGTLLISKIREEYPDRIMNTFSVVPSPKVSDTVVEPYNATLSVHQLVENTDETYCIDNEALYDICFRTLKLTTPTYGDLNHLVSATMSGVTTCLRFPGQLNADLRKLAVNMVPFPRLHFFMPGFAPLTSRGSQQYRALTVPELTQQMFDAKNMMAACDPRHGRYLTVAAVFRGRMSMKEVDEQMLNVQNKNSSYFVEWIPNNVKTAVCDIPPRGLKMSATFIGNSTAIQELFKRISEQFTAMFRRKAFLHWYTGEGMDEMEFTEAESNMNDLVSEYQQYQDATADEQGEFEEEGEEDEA

[31] = Half life in Wistar rat plasma at 500 ug/ml measured over 24 hrs at 37 degC by UPLC/MS analysis; assay type: ADME, cell-free
[32] = Antitumor activity against […] cells xenografted in ICR mouse assessed as reduction in tumor volume at 12 umol/kg administered once every 2 days via peritumoral route for 2 weeks measured for 22 days by caliper analysis relative to control; assay type: functional
[33] = Toxicity in ICR mouse xenografted with […] H22 cells assessed as change in body weight at 12 umol/kg administered once every 2 days via peritumoral route for 2 weeks; conditions: in vivo, other
MCF7/PTX [34] = experiment: Induction of apoptosis in human MCF7/PTX cells incubated for 12 hrs by Annexin V-FITC/propidium iodide staining-based flow cytometric analysis; assay type: functional, cell-based
MCF7/PTX [35] = experiment: Induction of membrane disruption in human MCF7/PTX cells incubated for 12 hrs by AO/EB double-staining based fluorescence microscopic method; assay type: functional, cell-based
[36] = Solubility of the compound in water; assay type: physicochemical

CC(=O)O[C@H]1C(=O)[C@@]2(C)[C@H]([C@H](OC(=O)c3ccccc3)[C@]3(O)C[C@H](OC(=O)[C@H](OC(=O)CCCCCN4C(=O)CC(SC[C@H](NC(=O)[C@H](CCCNC(=N)N)NC(=O)[C@H](CCCNC(=N)N)NC(=O)[C@H](CC(C)C)NC(=O)[C@H](CCCNC(=N)N)NC(=O)[C@H](CCCNC(=N)N)NC(=O)[C@H](Cc5ccccc5)NC(=O)[C@H](Cc5ccccc5)NC(=O)[C@H](CCCNC(=N)N)NC(=O)[C@H](CCCNC(=N)N)NC(=O)[C@H](Cc5ccccc5)NC(=O)[C@H](CCCNC(=N)N)NC(=O)[C@H](CCCNC(=N)N)NC(=O)[C@@H](NC(=O)[C@H](CC(C)C)NC(=O)CC[C@H](NC(=O)c5ccc(NCc6cnc7nc(N)[nH]c(=O)c7n6)cc5)C(=O)O)C(C)C)C(=O)N[C@H](C(=O)N[C@@H](CC(C)C)C(=O)N[C@@H](CC(C)C)C(N)=O)C(C)C)C4=O)[C@@H](NC(=O)c4ccccc4)c4ccccc4)C(C)=C1C3(C)C)[C@]1(OC(C)=O)CO[C@@H]1C[C@@H]2O (stereo partly drawn) ({Pteroyl-γGlu}-LVRRFRRFFRRLRRC(X1)VLL-NH2)
Activity (MCF7/PTX [1]): Dose-dependent effect
Activity (MCF7/PTX [2]): 1.4%
Activity (MCF7/PTX [3]): 28.8%
Activity (MCF7/PTX [4]): 3.9%
Activity (MCF7/PTX [5]): 28.8%
Activity (MCF7/PTX [6]): 1.5%
Activity (MCF7/PTX [7]): 65.8%
Activity (MCF7/PTX [8]): 5.6%
Activity (MCF7/PTX [9]): 11.4%
Activity (MCF7/PTX [10]): 1.6%
Activity (MCF7/PTX [11]): 81.4%
Activity (MCF7/PTX [12]): 41.6%
IC50 (MCF7): 1.39 µM
IC50 (MCF7/PTX [13]): 2.92 µM
IC50 (K562): 3.85 µM
IC50 (A2780): 1.42 µM
IC50 (SK-OV-3): 5.49 µM
Activity (MCF7/PTX [14]): 7.1%
IC50 (HUVEC): 45.2 µM
Activity (MCF7/PTX [15]): 7.4%
Activity (MCF7/PTX [16]): 2.4%
Activity (MCF7/PTX [17]): 83.1%
Activity (MCF7/PTX [18]): 5.6%
Activity (MCF7/PTX [19]): 51.6%
Activity (MCF7/PTX [20]): 1.2%
Activity (Erythrocyte): Toxic
Activity (MCF7/PTX [21]): Active
Activity (MCF7/PTX [22]): 54.6%
Activity (MCF7/PTX [23]): 15.1%
Activity (MCF7/PTX [24]): 29.2%
Activity (MCF7/PTX [25]): 1.3%
Activity (MCF7/PTX [26]): 62%
Activity (MCF7/PTX [27]): 7.5%
Activity (MCF7/PTX [28]): Active
Activity (MCF7/PTX [29]): Active
Activity (MCF7/PTX [30]): Active
Activity (Tubulin (Sus scrofa)): Active
half-life at 500 ug/ml [31]: 5.9 h
inhibition in vivo at 12 µmol/kg [32]: 69%
Activity [33]: Non-Toxic
Activity (MCF7/PTX [34]): Dose-dependent effect
Activity (MCF7/PTX [35]): Dose-dependent effect
solubility [36]: > 20 mg/mL
